In patent US20110082130A1 (LIGAND PHARMACEUTICALS, INC., priority 2006, published 2011):

molecular target: T1, chimeric human H3 receptor (Homo sapiens, UniProt Q9Y5N1); test: Chimeric human H3 receptor screening GTP binding assay (inhibition of histamine-stimulated GTP-gamma35S binding, Example 8); assay type: biochemical; details: Table II "Ki", symbol †, 4 μM of the compound, 1 μM histamine, read-out: percent inhibition of the signal obtained with 1 μM histamine
T1 construct: made in house; host or cells: Sf9 insect cells (baculovirus); P2 membrane preparation
T1 sequence (Q9Y5N1 with tags, fused parts or gaps): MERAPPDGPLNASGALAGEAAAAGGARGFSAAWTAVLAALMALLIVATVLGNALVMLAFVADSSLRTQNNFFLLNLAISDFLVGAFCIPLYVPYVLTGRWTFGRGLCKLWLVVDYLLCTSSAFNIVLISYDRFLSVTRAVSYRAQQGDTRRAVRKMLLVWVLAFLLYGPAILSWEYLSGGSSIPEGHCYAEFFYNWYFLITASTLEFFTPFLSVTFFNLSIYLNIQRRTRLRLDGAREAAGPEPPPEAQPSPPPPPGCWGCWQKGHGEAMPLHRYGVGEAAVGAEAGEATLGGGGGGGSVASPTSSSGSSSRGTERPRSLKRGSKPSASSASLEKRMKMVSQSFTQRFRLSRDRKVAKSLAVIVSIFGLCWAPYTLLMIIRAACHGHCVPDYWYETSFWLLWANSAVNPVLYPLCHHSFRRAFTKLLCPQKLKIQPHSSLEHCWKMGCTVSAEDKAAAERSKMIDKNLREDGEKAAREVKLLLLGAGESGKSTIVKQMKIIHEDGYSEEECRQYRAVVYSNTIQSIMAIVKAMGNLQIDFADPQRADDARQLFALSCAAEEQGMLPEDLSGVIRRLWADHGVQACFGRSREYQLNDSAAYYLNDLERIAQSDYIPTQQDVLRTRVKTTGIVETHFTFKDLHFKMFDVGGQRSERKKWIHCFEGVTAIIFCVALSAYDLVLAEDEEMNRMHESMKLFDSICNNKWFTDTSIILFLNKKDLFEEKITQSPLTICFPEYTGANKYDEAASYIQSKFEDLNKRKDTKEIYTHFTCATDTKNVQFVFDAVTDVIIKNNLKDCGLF
How it was run: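 Values are percent inhibition of 1 μM histamine-stimulated GTP-gamma35S […] binding, with non-specific binding (10 μM GTP-gammaS) subtracted, by compounds tested at 4 μM. Membranes (35 μg) from Sf9 cells expressing chimeric human H3 with G-protein subunits were used in Tris pH 7.4 buffer with 10 μM GDP. Incubation lasted 60 min at room temperature, followed by filtration and scintillation counting.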

Inhibition at 4 µM, ≥ 90%:
O=C(CN1CCc2cc(-c3cncnc3)ccc2C1)N1CCN(C2CCOCC2)CC1 [Compound 621, 2-{2-oxo-2-[4-(tetrahydro-2H-pyran-4-yl)piperazin-1-yl]ethyl}-6-pyrimidin-5-yl-1,2,3,4-tetrahydroisoquinoline]
C[C@H]1CN(C(=O)CN2CCc3cc(-c4cncnc4)ccc3C2)CCN1C1CCOCC1 [Compound 622, 2-{2-[(3S)-3-methyl-4-(tetrahydro-2H-pyran-4-yl)piperazin-1-yl]-2-oxoethyl}-6-pyrimidin-5-yl-1,2,3,4-tetrahydroisoquinoline]
O=C(CN1CCc2cc(-c3cncnc3)ccc2C1)N1CCN(C2C[C@H]3CC[C@@H]2C3)CC1 (stereo partly drawn) [Compound 623, 2-(2-{4-[(1R,4S)-bicyclo[2.2.1]hept-2-yl]piperazin-1-yl}-2-oxoethyl)-6-pyrimidin-5-yl-1,2,3,4-tetrahydroisoquinoline]
Cc1cc(F)ccc1-c1ccc2c(c1)CCN(CC(=O)N1CCN(C3CCC3)CC1)C2 [Compound 626, 2-[2-(4-cyclobutylpiperazin-1-yl)-2-oxoethyl]-6-(4-fluoro-2-methylphenyl)-1,2,3,4-tetrahydroisoquinoline]
COCC(C)Nc1ccc2c(n1)CCN(CC(=O)N1CCN(C3CCC3)CC1)C2 (stereo not drawn) [Compound 665, 6-[2-(4-cyclobutylpiperazin-1-yl)-2-oxoethyl]-N-(2-methoxy-1-methylethyl)-5,6,7,8-tetrahydro-1,6-naphthyridin-2-amine]
CC(C)OCCNc1ccc2c(n1)CCN(CC(=O)N1CCN(C3CCC3)CC1)C2 [Compound 668, 6-[2-(4-cyclobutylpiperazin-1-yl)-2-oxoethyl]-N-(2-isopropoxyethyl)-5,6,7,8-tetrahydro-1,6-naphthyridin-2-amine]
CCCOCCNc1ccc2c(n1)CCN(CC(=O)N1CCN(C3CCC3)CC1)C2 [Compound 669, 6-[2-(4-cyclobutylpiperazin-1-yl)-2-oxoethyl]-N-(2-propoxyethyl)-5,6,7,8-tetrahydro-1,6-naphthyridin-2-amine]
COC1CCCN(c2ccc3c(n2)CCN(CC(=O)N2CCN(C4CCC4)CC2)C3)C1 (stereo not drawn) [Compound 671, 6-[2-(4-cyclobutylpiperazin-1-yl)-2-oxoethyl]-2-(3-methoxypiperidin-1-yl)-5,6,7,8-tetrahydro-1,6-naphthyridine]
CN(CC#N)c1ccc2c(n1)CCN(CC(=O)N1CCN(C3CCC3)CC1)C2 [Compound 680, [{6-[2-(4-cyclobutylpiperazin-1-yl)-2-oxoethyl]-5,6,7,8-tetrahydro-1,6-naphthyridin-2-yl}(methyl)amino] acetonitrile]
